In the supplement of paper PMC10307832:

Tests used:
Assay in all cases: relative viability (nuclei count vs DMSO), 5 days (fraction); higher = more cells survive
[1] = compound: OCc1c[nH]c2ccccc12 [Indole-3-carbinol] + COc1cccc2cc(-c3nc([C@H]4CC[C@H](C(=O)O)CC4)n4ncnc(N)c34)[nH]c12 [OSI-027] (partner 0.5 µM)
In short: (§1)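 Lung cancer cell lines, seeded in 1536-well plates, were treated the following day by pin tool with a single drug or with five library-drug doses (not always all listed) in √10 steps on top of a fixed anchor-drug dose. Cells were fixed and nuclei stained in one step after 5 days, and nuclei were counted. Relative viability is the nuclei count for treated wells divided by that for vehicle wells, reported as medians of duplicate plates.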

[2] = compound: OCc1c[nH]c2ccccc12 [Indole-3-carbinol] + CC(C)C[C@H](NC(=O)[C@H](Cc1ccccc1)NC(=O)c1cnccn1)B(O)O [Bortezomib] (partner 0.002 µM)
In short: as §1

[3] = compound: OCc1c[nH]c2ccccc12 [Indole-3-carbinol] + Nc1ncn([C@H]2C[C@H](O)[C@@H](CO)O2)c(=O)n1 [Decitabine] (partner 2 µM)
In short: as §1

[4] = compound: OCc1c[nH]c2ccccc12 [Indole-3-carbinol] + Nc1nc2[nH]cc(CCc3ccc(C(=O)N[C@@H](CCC(=O)O)C(=O)O)cc3)c2c(=O)[nH]1 [Pemetrexed] (partner 0.2 µM)
In short: as §1

[5] = compound: OCc1c[nH]c2ccccc12 [Indole-3-carbinol] + C[C@@H](Oc1cc(-c2cnn(C3CCNCC3)c2)cnc1N)c1c(Cl)ccc(F)c1Cl [Crizotinib] (partner 1 µM)
In short: as §1

| Cell Line | relative viability ([1]; first compound 0.253 µM) | relative viability ([1]; first compound 0.8 µM) | relative viability ([1]; first compound 2.53 µM) | relative viability ([1]; first compound 8 µM) | relative viability ([2]; first compound 0.253 µM) | relative viability ([2]; first compound 0.8 µM) | relative viability ([2]; first compound 2.53 µM) | relative viability ([2]; first compound 8 µM) | relative viability ([3]; first compound 0.253 µM) | relative viability ([3]; first compound 0.8 µM) | relative viability ([3]; first compound 2.53 µM) | relative viability ([3]; first compound 8 µM) | relative viability ([4]; first compound 0.253 µM) | relative viability ([4]; first compound 0.8 µM) | relative viability ([4]; first compound 2.53 µM) | relative viability ([4]; first compound 8 µM) | relative viability ([5]; first compound 0.253 µM) | relative viability ([5]; first compound 0.8 µM) | relative viability ([5]; first compound 2.53 µM) | relative viability ([5]; first compound 8 µM) |
| --- | --- | --- | --- | --- | --- | --- | --- | --- | --- | --- | --- | --- | --- | --- | --- | --- | --- | --- | --- | --- |
| NCI-H1666 | 0.7 | 0.878 | 0.874 | 0.876 | 0.892 | 0.873 | 0.865 | 0.786 | 0.809 | 0.673 | 0.696 | 0.661 | 0.882 | 0.852 | 0.878 | 0.826 | 1.11 | 0.994 | 1.42 | 0.892 |
| NCI-H1734 | 0.506 | 0.631 | 0.634 | 0.582 | 0.974 | 1.11 | 0.966 | 0.893 | 0.51 | 0.456 | 0.477 | 0.46 | 0.413 | 0.417 | 0.454 | 0.418 | 0.72 | 0.777 | 0.637 | 0.632 |
| NCI-H1755 | 0.761 | 0.664 | 0.822 | 0.699 | 1.02 | 0.939 | 0.976 | 0.995 | 0.737 | 0.686 | 0.725 | 0.638 | 0.422 | 0.436 | 0.435 | 0.386 | 0.916 | 0.97 | 0.862 | 0.888 |
| NCI-H1792 | 0.733 | 0.695 | 0.726 | 0.692 | 0.965 | 0.89 | 1.03 | 0.934 | 0.569 | 0.603 | 0.506 | 0.489 | 0.984 | 0.993 | 0.704 | 0.858 | 0.95 | 1.01 | 0.95 | 0.984 |
| NCI-H1915 | 0.571 | 0.611 | 0.623 | 0.563 | 0.968 | 0.881 | 0.973 | 0.977 | 0.255 | 0.246 | 0.275 | 0.27 | 0.466 | 0.527 | 0.513 | 0.511 | 0.881 | 0.852 | 0.892 | 0.924 |
| NCI-H1975 | 0.589 | 0.808 | 0.696 | 0.743 | 0.409 | 0.328 | 0.436 | 0.365 | 0.392 | 0.38 | 0.415 | 0.436 | 0.288 | 0.294 | 0.293 | 0.311 | 1 | 1.13 | 0.966 | 0.97 |
| NCI-H1993 | 0.513 | 0.516 | 0.63 | 0.468 | 1.09 | 1.38 | 1.14 | 1.17 | 0.641 | 0.657 | 0.573 | 0.623 | 0.59 | 0.69 | 0.548 | 0.567 | 0.873 | 0.896 | 0.813 | 0.944 |
| NCI-H2009 | 0.572 | 0.677 | 0.649 | 0.604 | 1.14 | 1.09 | 0.998 | 0.933 | 0.406 | 0.346 | 0.376 | 0.381 | 1.03 | 1.07 | 1.07 | 1.06 | 0.993 | 1.07 | 0.953 | 1 |
| NCI-H2023 | 0.406 | 0.405 | 0.438 | 0.398 | 0.903 | 1.02 | 0.887 | 0.939 | 0.213 | 0.213 | 0.212 | 0.198 | 0.245 | 0.269 | 0.252 | 0.258 | 0.716 | 0.732 | 0.651 | 0.631 |
| NCI-H2085 | 0.76 | 0.884 | 0.747 | 0.684 | 1.07 | 1.15 | 1.14 | 0.967 | 0.5 | 0.63 | 0.483 | 0.506 | 0.965 | 0.927 | 0.932 | 0.758 | 0.897 | 0.738 | 0.832 | 0.786 |
| NCI-H2087 | 0.435 | 0.644 | 0.571 | 0.513 | 0.815 | 0.967 | 0.963 | 0.678 | 0.278 | 0.323 | 0.255 | 0.341 | 0.706 | 0.703 | 0.705 | 0.63 | 1.01 | 0.997 | 1.1 | 0.88 |
| NCI-H2126 | 0.706 | 0.745 | 0.65 | 0.791 | 1.11 | 1.11 | 1.1 | 1.1 | 0.6 | 0.601 | 0.547 | 0.54 | 0.664 | 0.746 | 0.624 | 0.651 | 1.01 | 1.05 | 1.02 | 1.03 |
| NCI-H2347 | 0.429 | 0.374 | 0.287 | 0.364 | 1.2 |  | 0.926 | 0.868 | 0.678 | 0.58 | 0.509 | 0.574 | 0.425 | 0.415 | 0.437 | 0.41 | 0.747 | 0.607 | 0.706 | 0.671 |
| NCI-H2405 | 0.617 | 0.676 | 0.633 | 0.656 | 0.985 | 0.983 | 1 | 0.963 | 0.829 | 0.711 | 0.852 | 0.635 | 1.15 | 1.04 | 0.972 | 1.03 | 0.875 | 0.825 | 0.901 | 0.78 |
| NCI-H3122 | 0.967 | 1.08 | 1.02 | 0.948 | 1.01 | 1.04 | 1.07 | 1.04 | 0.462 | 0.414 | 0.37 | 0.451 | 0.195 | 0.21 | 0.203 | 0.203 | 0.289 | 0.293 | 0.281 | 0.292 |
| PC-3 [JPC-3] | 0.714 | 0.741 | 0.704 | 0.745 | 0.851 | 0.89 | 0.863 | 0.741 | 0.868 | 0.832 | 0.91 | 0.809 | 1.17 | 1.16 | 0.958 | 1.15 | 0.946 | 1.08 | 0.997 | 0.969 |
